pIC50: −log10 of the molar value.
Biological target: human PD-L1 / Human PD-1 (Homo sapiens (Human), UniProt Q9NZQ7)
Test: Enzyme-Linked Immunosorbent Assay (ELISA), PD-1/PD-L1 binding
Details: plate-coated human PD-L1, biotinylated human PD-1
How it was run: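 Plates were coated with human PD-L1 at […]. Biotinylated human PD-1 (0.3 μg/mL) was added with 1:5 serially diluted compound for 1 h at 37 °C. Bound PD-1 was detected with streptavidin-HRP (1 h) and TMB (20 min), with absorbance read at 450 nm.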

human PD-L1 / Human PD-1, sequence (Q9NZQ7 19-239): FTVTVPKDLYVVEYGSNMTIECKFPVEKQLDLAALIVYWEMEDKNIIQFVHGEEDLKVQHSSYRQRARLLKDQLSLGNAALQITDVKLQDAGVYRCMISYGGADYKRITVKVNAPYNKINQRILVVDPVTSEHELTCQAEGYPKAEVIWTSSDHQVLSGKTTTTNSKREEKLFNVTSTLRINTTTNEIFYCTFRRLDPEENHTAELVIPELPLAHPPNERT

| pIC50 | SMILES |
| --- | --- |
| > 8.30 | Cc1c(OCCCN2CC3(CC(O)C3)C2)cccc1-c1cccc2c1CC[C@@H]2Oc1cc(OCc2cc(C#N)cc(C#N)c2)c(CNC[C@H]2CCC(=O)N2)cc1Cl |
| 6.30 to 8.30 | N#Cc1cncc(COc2cc(O[C@H]3CCc4c(-c5cccc(OCCCN6CCC(F)CC6)c5Cl)cccc43)c(Cl)cc2CN[C@@H]2CCOC[C@@H]2F)c1 |
| 6.30 to 8.30 | CC1(F)CCN(CCCOc2cccc(-c3cccc4c3CC[C@@H]4Oc3cc(OCc4cncc(C#N)c4)c(CNC[C@H]4CCC(=O)N4)cc3Cl)c2Cl)CC1 |
| > 8.30 | N#Cc1cncc(COc2cc(O[C@H]3CCc4c(-c5cccc(OCCCN6CC7(CC(O)C7)C6)c5Cl)cccc43)c(Cl)cc2CN[C@@H]2CCCC[C@@H]2O)c1 |
| 6.30 to 8.30 | CCOc1cc(O[C@H]2CCc3c(-c4cccc(OCCCN5CC(O)C5)c4Cl)cccc32)c(Cl)cc1CN[C@@H]1CCCC[C@@H]1O |
| > 8.30 | N#Cc1cncc(COc2cc(O[C@H]3CCc4c(-c5cccc(OCCCN6CC7(CC(F)C7)C6)c5Cl)cccc43)c(Cl)cc2CN[C@H]2CCC[C@@H]2O)c1 |
| > 8.30 | Cc1c(OCCCN2CCC(O)CC2)cccc1-c1cccc2c1CC[C@@H]2Oc1cc(OCc2cncc(C#N)c2)c(CNCc2cn(C)cn2)cc1Cl |
| 6.30 to 8.30 | Cc1c(OCCCN2CC(C)(F)C2)cccc1-c1cccc2c1CC[C@@H]2Oc1cc(OCc2cc(C#N)cc(C#N)c2)c(CN[C@H]2CCC(=O)NC2)cc1Cl |
| 6.30 to 8.30 | Cc1c(OCCCN2CCC(F)CC2)cccc1-c1cccc2c1CC[C@@H]2Oc1cc(OCc2cc(C#N)cc(C#N)c2)c(CN[C@@H]2CCC(=O)NC2=O)cc1Cl |
| > 8.30 | Cc1c(OCCCN2CC3(CC(F)C3)C2)cccc1-c1cccc2c1CC[C@@H]2Oc1cc(OCc2cc(C#N)cc(C#N)c2)c(CN[C@H]2CCC(=O)NC2)cc1Cl |
| 6.30 to 8.30 | Cc1c(OCCCN2CCC(F)CC2)cccc1-c1cc(F)cc2c1CC[C@@H]2Oc1cc(OCc2cc(C#N)cc(C#N)c2)c(CN[C@H]2CCC(=O)NC2)cc1Cl |
| 6.30 to 8.30 | N#Cc1cncc(COc2cc(O[C@H]3CCc4c(-c5cccc(OCCC(N)=O)c5Cl)cccc43)c(Cl)cc2CN[C@@H]2CCCC[C@@H]2O)c1 |
| > 8.30 | Cc1c(OCCCN2CCC(O)CC2)cccc1-c1cccc2c1CC[C@@H]2Oc1cc(OCc2cncc(C#N)c2)c(CN[C@@H](CO)C(N)=O)cc1Cl |
| 6.30 to 8.30 | CCOc1cc(O[C@H]2CCc3c(-c4cccc(OCCCN5CC[C@@H](O)C5)c4C)cccc32)c(Cl)cc1CN[C@@H]1CCCC[C@@H]1O |
| 6.30 to 8.30 | Cc1c(OCCCN2CCC(F)CC2)cccc1-c1cccc2c1C[C@H](F)[C@@H]2Oc1cc(OCc2cc(C#N)cc(C#N)c2)c(CN[C@H]2CCC(=O)NC2)cc1Cl |
| > 8.30 | Cc1c(OCCCN2CCC(O)CC2)cccc1-c1cccc2c1CCC2Oc1cc(OCc2cncc(C#N)c2)c(CN[C@H](C(=O)O)[C@@H](C)O)cc1Cl (stereo partly drawn) |
| 6.30 to 8.30 | CCOc1cc(O[C@H]2CCc3c(-c4cccc(OCCCN5CCC5(C)C)c4C)cccc32)c(Cl)cc1CN(C)CC(C)C(=O)O (stereo partly drawn) |
| 6.30 to 8.30 | CCOc1cc(O[C@H]2CCc3c(-c4cccc(OCCCN5CC[C@@H](O)C5)c4C)cccc32)c(Cl)cc1CN[C@@](C)(CO)C(=O)OC(C)C |
| > 8.30 | CCOc1cc(O[C@H]2CCc3c(-c4cccc(OCCCN5CC[C@@H](O)C5)c4C)cccc32)c(Cl)cc1CNC(C)(CO)CO |
| > 8.30 | N#Cc1cncc(COc2cc(O[C@H]3CCc4c(-c5cccc(OCCCN6CC7(C6)CC(F)(F)C7)c5Cl)cccc43)c(Cl)cc2CN[C@@H]2CCC[C@H]2O)c1 |

| pIC50 | SMILES |
| --- | --- |
| > 8.30 | CC(CO)(NCc1cc(Cl)c(O[C@H]2CCc3c(-c4cccc(OCCCN5CC6(CC(F)C6)C5)c4Cl)cccc32)cc1OCc1cncc(C#N)c1)C(=O)O (stereo partly drawn) |
| 6.30 to 8.30 | CCOc1cc(O[C@H]2CCc3c(-c4cccc(OCCCN5CCC5(C)C)c4C)cccc32)c(Cl)cc1CN(C)CC(C)(C)C(=O)O |
| > 8.30 | N#Cc1cncc(COc2cc(O[C@H]3CCc4c(-c5cccc(OCCCN6CCCCC6)c5Cl)cccc43)c(Cl)cc2CNC[C@H]2CCC(=O)N2)c1 |
| 6.30 to 8.30 | Cc1c(OCCCN2CCC(C)(F)CC2)cccc1-c1cccc2c1CC[C@@H]2Oc1cc(OCc2cncc(C#N)c2)c(CNC[C@H]2CCC(=O)N2)cc1Cl |
| > 8.30 | CCOc1cc(O[C@H]2CCc3c(-c4cccc(OCCCN5CCC5(C)C)c4C)cccc32)c(Cl)cc1CNCCO |
| 6.30 to 8.30 | N#Cc1cc(C#N)cc(COc2cc(O[C@@H]3c4cccc(-c5cccc(OCCCN6CCC(F)CC6)c5Cl)c4C[C@H]3F)c(Cl)cc2CNC[C@H]2CCC(=O)N2)c1 |
| > 8.30 | Cc1c(OCCCN2CCC(O)CC2)cccc1-c1cccc2c1CC[C@H]2Oc1cc(OCc2cncc(C#N)c2)c(CN[C@H](C(=O)O)[C@@H](C)O)cc1Cl |
| > 8.30 | N#Cc1cc(C#N)cc(COc2cc(O[C@@H]3c4cccc(-c5cccc(OCCCN6CC(O)C6)c5Cl)c4C[C@@H]3F)c(Cl)cc2CNC[C@H]2CCC(=O)N2)c1 |
| > 8.30 | N#Cc1cncc(COc2cc(O[C@H]3CCc4c(-c5cccc(OCCCN6CC7(C6)CC(F)(F)C7)c5Cl)cccc43)c(Cl)cc2CN[C@H]2CCC[C@@H]2O)c1 |
| 6.30 to 8.30 | N#Cc1cc(C#N)cc(COc2cc(O[C@@H]3c4cccc(-c5cccc(OCCCN6CC(O)C6)c5Cl)c4C[C@@H]3F)c(Cl)cc2CNC[C@@H]2CCC(=O)N2)c1 |
| > 8.30 | CC1(O)CCN(Cc2cc(Cl)c(O[C@H]3CCc4c(-c5cccc(OCCCN6CCC(F)CC6)c5Cl)cccc43)cc2OCc2cncc(C#N)c2)CC1 |
| > 8.30 | Cc1c(OCCCN2CCC(F)CC2)cccc1-c1cccc2c1CC[C@@H]2Oc1cc(OCc2cc(C#N)cc(C#N)c2)c(CN[C@H]2CCC[C@H]2O)cc1Cl |
| > 8.30 | Cc1c(OCCCN2CCCCC2)cccc1-c1cccc2c1CC[C@@H]2Oc1cc(OCc2cc(C#N)cc(C#N)c2)c(CNC[C@H]2CCC(=O)N2)cc1Cl |
| 6.30 to 8.30 | CCOc1cc(O[C@H]2CCc3c(-c4cccc(OCCCN5CCC5(C)C)c4C)cccc32)c(Cl)cc1CN[C@H]1CCC(=O)NC1 |
| > 8.30 | CN1CCC(COc2cccc(-c3cccc4c3CC[C@@H]4Oc3cc(OCc4cncc(C#N)c4)c(CNC[C@H]4CCC(=O)N4)cc3Cl)c2Cl)C1 (stereo partly drawn) |
| > 8.30 | N#Cc1cncc(COc2cc(O[C@H]3CCc4c(-c5cccc(OCCCN6CCC(F)CC6)c5Cl)cccc43)c(Cl)cc2CN[C@H]2CCOC[C@H]2O)c1 |
| 6.30 to 8.30 | CCOc1cc(O[C@H]2CCc3c(-c4cccc(OCCCN5CCCC5(C)C)c4C)cccc32)c(Cl)cc1CN(C[C@@H]1CCC(=O)N1)C(C)C |
| > 8.30 | CC(CO)(NCc1cc(Cl)c(O[C@H]2CCc3c(-c4cccc(OCCCN5CC(O)C5)c4Cl)cccc32)cc1OCc1cncc(Cl)c1)C(=O)O (stereo partly drawn) |
| > 8.30 | CN1CCC(COc2cccc(-c3cccc4c3CC[C@@H]4Oc3cc(OCc4cncc(C#N)c4)c(CNC[C@@H]4CCC(=O)N4)cc3Cl)c2Cl)C1 (stereo partly drawn) |
| 6.30 to 8.30 | CCOc1cc(O[C@H]2CCc3c(-c4cccc(OCCCN5CCC5(C)C)c4C)cccc32)c(Cl)cc1CN1CCNC(=O)CC1 |

| pIC50 | SMILES |
| --- | --- |
| 6.30 to 8.30 | CCOc1cc(O[C@H]2CCc3c(-c4cccc(OCCCN5CCC(F)CC5)c4Cl)cccc32)c(Cl)cc1CN[C@@H]1CCC(=O)NC1 |
| 6.30 to 8.30 | Cc1c(OCCCN2CCC(C)(F)CC2)cccc1-c1cccc2c1CC[C@@H]2Oc1cc(OCc2cc(C#N)cc(C#N)c2)c(CN2CCC3(C2)NC(=O)NC3=O)cc1Cl (stereo partly drawn) |
| > 8.30 | Cc1c(OCCCN2CCC(O)CC2)cccc1-c1cccc2c1CC[C@@H]2Oc1cc(OCc2cncc(C#N)c2)c(CN2CC[C@@H](O)C2)cc1Cl |
| 4.70 to 6.30 | Cc1c(OCCCN2CCC(C)(F)CC2)cccc1-c1cccc2c1CC[C@@H]2Oc1cc(OCc2cc(C#N)cc(C#N)c2)c(CN2CC3(C2)NC(=O)NC3=O)cc1Cl |
| 6.30 to 8.30 | CC1(F)CCN(CCCOc2cccc(-c3cccc4c3CC[C@@H]4Oc3cc(OCc4cncc(C#N)c4)c(CN[C@@H]4CCC(=O)NC4)cc3Cl)c2Cl)CC1 |
| > 8.30 | CCOc1cc(O[C@H]2CCc3c(-c4cccc(OCCCN5CC[C@@H](O)C5)c4C)cccc32)c(Cl)cc1CN[C@H](C(=O)O)[C@@H](C)O |
| 6.30 to 8.30 | N#Cc1cncc(COc2cc(O[C@H]3CCc4c(-c5cccc(OCCCN6CC(O)C6)c5Cl)cccc43)c(Cl)cc2CN2CCC3(C2)NC(=O)NC3=O)c1 (stereo partly drawn) |
| > 8.30 | Cc1c(OCCCN2CCCC2(C)C)cccc1-c1cccc2c1CC[C@@H]2Oc1cc(OCc2cc(C#N)cc(C#N)c2)c(CN[C@H]2CCC(=O)NC2)cc1Cl |
| > 8.30 | CCOc1cc(O[C@H]2CCc3c(-c4cccc(OCCCN5C(C)CC5(C)C)c4C)cccc32)c(Cl)cc1CNC[C@@H]1CCC(=O)N1 (stereo partly drawn) |
| > 8.30 | Cc1c(OCCCN2CC(F)C2)cccc1-c1cccc2c1CC[C@@H]2Oc1cc(OCc2cncc(C#N)c2)c(CNCC2CCC(=O)N2)cc1Cl (stereo partly drawn) |
| 6.30 to 8.30 | COc1cc(O[C@H]2CCc3c(-c4cccc(OCCCN5CCC(F)CC5)c4Cl)cccc32)c(Cl)cc1CN[C@@H]1CCCC[C@@H]1O |
| > 8.30 | Cc1c(OCCCN2C(C)CC2C)cccc1-c1cccc2c1CC[C@@H]2Oc1cc(OCc2cc(C#N)cc(C#N)c2)c(CN[C@H]2CCC(=O)NC2)cc1Cl (stereo partly drawn) |
| 6.30 to 8.30 | Cc1c(OCCCN2CCC(F)CC2)cccc1-c1cccc2c1CC[C@@H]2Oc1cc(OCc2cc(C#N)cc(C#N)c2)c(CN[C@H]2CCCCNC2=O)cc1Cl |
| > 8.30 | Cc1c(OCCCN2CCCCC2)cccc1-c1cccc2c1CC[C@@H]2Oc1cc(OCc2cncc(C#N)c2)c(CNC[C@H]2CCC(=O)N2)cc1Cl |
| > 8.30 | CC1(F)CCN(CCCOc2cccc(-c3cccc4c3CC[C@@H]4Oc3cc(OCc4cncc(C#N)c4)c(CN[C@@H]4CCCC[C@@H]4O)cc3Cl)c2Cl)CC1 |
| 6.30 to 8.30 | Cc1c(OCCCN2CC3(C2)CC(F)(F)C3)cccc1-c1cccc2c1CC[C@@H]2Oc1cc(OCc2cc(C#N)cc(C#N)c2)c(CNC[C@H]2CCC(=O)N2)cc1Cl |
| > 8.30 | Cc1c(OCCCNCC(C)(C)O)cccc1-c1cccc2c1CC[C@@H]2Oc1cc(OCc2cncc(C#N)c2)c(CNCC2CCC(=O)N2)cc1Cl (stereo partly drawn) |
| 6.30 to 8.30 | Cc1c(OCCCN2CC(C)(F)C2)cccc1-c1cccc2c1CC[C@@H]2Oc1cc(OCc2cc(C#N)cc(C#N)c2)c(CNC[C@H]2CCC(=O)N2)cc1Cl |
| 6.30 to 8.30 | N#Cc1cncc(COc2cc(O[C@H]3CCc4c(-c5cccc(OCCCN6CC7(CC(F)C7)C6)c5Cl)cccc43)c(Cl)cc2CN2CC3(C2)NC(=O)NC3=O)c1 |

| SMILES | pIC50 |
| --- | --- |
| Cc1c(OCCCN2C3CCC2CC(O)C3)cccc1-c1cccc2c1CC[C@@H]2Oc1cc(OCc2cncc(C#N)c2)c(CNCC2CCC(=O)N2)cc1Cl (stereo partly drawn) | > 8.30 |
